{
  "source": "paper PMC3653412",
  "about": "(European journal of pharmacology, 2012)",
  "target": "complex I (NADH:ubiquinone oxidoreductase) (Rattus norvegicus, UniProt A6K8N6+P03889+Q641Y2)",
  "assay": "oxygen consumption of isolated mitochondria, Clark electrode",
  "format": "biochemical",
  "settings": "read-out: % inhibition at 0.5 mM",
  "data": [
    {"compound": "FC(F)OC(Cl)C(F)(F)F", "note": "(stereo not shown) [isoflurane]", "values": [
      {"measurement": "inhibition at 500 µM", "value": "28 ± 10", "unit": "%"}
    ]}
  ]
}
